Data from ChEMBL document CHEMBL2040771, “Discovery of a potent inhibitor of anaplastic lymphoma kinase with in vivo antitumor activity” (ACS Med Chem Lett, 2010).
Calls of active or inactive are those of the source. No cut-off for these calls is given here.

Legend:
[1] = test system: Epidermal growth factor receptor (Homo sapiens), P04626+P00533+Q15303+P21860 [UNDEFINED MUTATION]; assay: Inhibition of EGFR L747 to E749 deletion, A750P mutant at 1 uM; type: protein assay
[2] = molecular target: Serine/threonine-protein kinase 3 (Homo sapiens) (UniProt Q13188); assay: Inhibition of MST2 at 0.1 uM
Serine/threonine-protein kinase 3 (Homo sapiens), sequence (Q13188 whole entry): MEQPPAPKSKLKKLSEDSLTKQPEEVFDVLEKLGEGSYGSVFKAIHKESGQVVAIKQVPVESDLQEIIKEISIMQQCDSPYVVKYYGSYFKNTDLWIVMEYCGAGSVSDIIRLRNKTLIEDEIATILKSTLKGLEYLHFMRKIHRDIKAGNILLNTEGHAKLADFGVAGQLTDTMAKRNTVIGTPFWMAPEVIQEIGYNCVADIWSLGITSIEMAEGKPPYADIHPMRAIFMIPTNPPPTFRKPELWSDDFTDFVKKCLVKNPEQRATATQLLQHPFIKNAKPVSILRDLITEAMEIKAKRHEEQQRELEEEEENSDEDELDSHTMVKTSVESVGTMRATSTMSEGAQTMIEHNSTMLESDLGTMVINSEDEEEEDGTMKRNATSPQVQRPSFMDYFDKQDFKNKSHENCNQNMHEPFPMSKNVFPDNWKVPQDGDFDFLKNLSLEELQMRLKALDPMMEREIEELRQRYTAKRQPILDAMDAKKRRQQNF

Mus musculus [3] = assay: Toxicity in SCID mouse xenografted with human SUP-M2 cells assessed as weight loss at 10 mg/kg, po BID for 12 days; type: organism-based; design: dose 10 mg/kg, route oral; settings: in vivo, 288 h
[4] = molecular target: Macrophage colony-stimulating factor 1 receptor (Homo sapiens) (UniProt P07333); assay: Inhibition of CSF1R at 1 uM
[5] = test system: Mast/stem cell growth factor receptor Kit (Homo sapiens), P10721 [D816V]; assay: Inhibition of KIT D816V mutant at 1 uM
[6] = molecular target: Fibroblast growth factor receptor 4 (Homo sapiens) (UniProt P22455); assay: Inhibition of FGFR4 at 0.1 uM
Fibroblast growth factor receptor 4 (Homo sapiens), sequence (P22455 22-802 limits assumed): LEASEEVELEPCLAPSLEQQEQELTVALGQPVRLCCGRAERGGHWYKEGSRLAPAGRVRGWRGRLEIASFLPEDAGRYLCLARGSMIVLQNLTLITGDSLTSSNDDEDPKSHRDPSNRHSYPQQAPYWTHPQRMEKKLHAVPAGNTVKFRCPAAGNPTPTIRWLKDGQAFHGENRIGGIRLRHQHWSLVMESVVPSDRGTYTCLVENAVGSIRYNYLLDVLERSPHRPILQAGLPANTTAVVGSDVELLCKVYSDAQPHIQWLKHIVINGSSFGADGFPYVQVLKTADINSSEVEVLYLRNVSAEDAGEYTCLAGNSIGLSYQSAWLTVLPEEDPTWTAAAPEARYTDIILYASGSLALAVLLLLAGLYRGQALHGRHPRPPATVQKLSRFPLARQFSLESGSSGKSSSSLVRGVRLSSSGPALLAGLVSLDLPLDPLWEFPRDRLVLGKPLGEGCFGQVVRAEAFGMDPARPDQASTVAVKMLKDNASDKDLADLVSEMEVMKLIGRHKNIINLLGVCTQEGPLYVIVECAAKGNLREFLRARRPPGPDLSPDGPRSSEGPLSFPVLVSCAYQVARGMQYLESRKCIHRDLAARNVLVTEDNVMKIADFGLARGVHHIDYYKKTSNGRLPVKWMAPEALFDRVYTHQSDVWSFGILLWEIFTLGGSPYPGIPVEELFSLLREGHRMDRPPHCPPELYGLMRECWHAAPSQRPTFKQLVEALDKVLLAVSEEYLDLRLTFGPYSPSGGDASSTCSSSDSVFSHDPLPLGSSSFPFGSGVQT

[7] = test system: Receptor-type tyrosine-protein kinase FLT3 (Homo sapiens), P36888 [D835H]; assay: Inhibition of FLT3 D835H mutant at 0.1 uM
[8] = test system: Receptor-type tyrosine-protein kinase FLT3 (Homo sapiens), P36888 [N841I]; assay: Inhibition of FLT3 N841I mutant at 1 uM
Mus musculus [9] = assay: Toxicity in SCID mouse xenografted with human SUP-M2 cells assessed as weight loss at 55 mg/kg, po BID for 12 days; type: organism-based; design: dose 55 mg/kg, route oral; settings: in vivo, 288 h
[10] = molecular target: Tyrosine-protein kinase Fer (Homo sapiens) (UniProt P16591); assay: Inhibition of FER at 1 uM
Mus musculus [11] = assay: Toxicity in SCID mouse xenografted with human SUP-M2 cells at 10 mg/kg, po BID for 12 days; type: organism-based; design: dose 10 mg/kg, route oral; settings: in vivo, 288 h
[12] = molecular target: Protein-tyrosine kinase 6 (Homo sapiens) (UniProt Q13882); assay: Inhibition of BRK at 0.1 uM
Protein-tyrosine kinase 6 (Homo sapiens), sequence (Q13882 whole entry, looked up): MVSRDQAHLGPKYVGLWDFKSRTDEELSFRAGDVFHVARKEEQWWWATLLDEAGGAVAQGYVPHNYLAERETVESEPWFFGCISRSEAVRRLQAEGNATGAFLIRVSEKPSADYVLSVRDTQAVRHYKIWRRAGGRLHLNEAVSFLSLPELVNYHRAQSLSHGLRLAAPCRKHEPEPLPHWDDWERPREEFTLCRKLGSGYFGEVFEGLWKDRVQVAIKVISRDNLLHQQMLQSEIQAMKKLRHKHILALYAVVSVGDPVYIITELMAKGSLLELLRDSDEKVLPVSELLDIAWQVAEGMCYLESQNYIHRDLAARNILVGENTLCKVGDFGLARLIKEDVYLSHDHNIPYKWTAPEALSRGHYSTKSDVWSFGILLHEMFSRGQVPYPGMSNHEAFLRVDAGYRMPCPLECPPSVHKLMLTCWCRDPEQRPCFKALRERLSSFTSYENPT

[13] = molecular target: T1, ALK tyrosine kinase receptor (Homo sapiens, UniProt Q9UM73); assay: Inhibition of ALK
[14] = test system: Receptor-type tyrosine-protein kinase FLT3 (Homo sapiens), P36888 [N841I]; assay: Inhibition of FLT3 N841I mutant at 0.1 uM
[15] = molecular target: Serine/threonine-protein kinase PAK 3 (Homo sapiens) (UniProt O75914); assay: Inhibition of PAK3 at 1 uM
Serine/threonine-protein kinase PAK 3 (Homo sapiens), sequence (O75914 whole entry, looked up): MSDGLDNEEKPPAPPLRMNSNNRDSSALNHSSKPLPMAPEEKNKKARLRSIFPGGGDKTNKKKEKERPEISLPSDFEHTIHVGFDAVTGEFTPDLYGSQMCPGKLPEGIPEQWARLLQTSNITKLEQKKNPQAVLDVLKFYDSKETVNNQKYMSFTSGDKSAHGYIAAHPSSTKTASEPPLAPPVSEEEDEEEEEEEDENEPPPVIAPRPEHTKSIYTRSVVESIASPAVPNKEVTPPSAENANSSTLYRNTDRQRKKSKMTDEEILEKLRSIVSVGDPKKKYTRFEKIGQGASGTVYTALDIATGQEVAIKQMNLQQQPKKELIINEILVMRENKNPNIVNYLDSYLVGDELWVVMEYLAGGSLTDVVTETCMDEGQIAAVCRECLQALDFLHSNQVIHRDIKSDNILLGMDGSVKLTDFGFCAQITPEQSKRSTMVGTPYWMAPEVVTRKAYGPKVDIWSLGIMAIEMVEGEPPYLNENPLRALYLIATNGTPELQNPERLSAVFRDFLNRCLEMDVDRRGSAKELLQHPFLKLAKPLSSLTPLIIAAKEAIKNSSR

[16] = Plasma concentration in SCID mouse xenografted with ALK-positive human SUP-M2 cells at 30 mg/kg, po bid for 12 days; type: ADME, organism-based; design: dose 30 mg/kg, route oral
[17] = molecular target: Epidermal growth factor receptor (Homo sapiens) (UniProt P00533); assay: Inhibition of EGFR at 0.1 uM
Epidermal growth factor receptor (Homo sapiens), sequence (P00533 whole entry): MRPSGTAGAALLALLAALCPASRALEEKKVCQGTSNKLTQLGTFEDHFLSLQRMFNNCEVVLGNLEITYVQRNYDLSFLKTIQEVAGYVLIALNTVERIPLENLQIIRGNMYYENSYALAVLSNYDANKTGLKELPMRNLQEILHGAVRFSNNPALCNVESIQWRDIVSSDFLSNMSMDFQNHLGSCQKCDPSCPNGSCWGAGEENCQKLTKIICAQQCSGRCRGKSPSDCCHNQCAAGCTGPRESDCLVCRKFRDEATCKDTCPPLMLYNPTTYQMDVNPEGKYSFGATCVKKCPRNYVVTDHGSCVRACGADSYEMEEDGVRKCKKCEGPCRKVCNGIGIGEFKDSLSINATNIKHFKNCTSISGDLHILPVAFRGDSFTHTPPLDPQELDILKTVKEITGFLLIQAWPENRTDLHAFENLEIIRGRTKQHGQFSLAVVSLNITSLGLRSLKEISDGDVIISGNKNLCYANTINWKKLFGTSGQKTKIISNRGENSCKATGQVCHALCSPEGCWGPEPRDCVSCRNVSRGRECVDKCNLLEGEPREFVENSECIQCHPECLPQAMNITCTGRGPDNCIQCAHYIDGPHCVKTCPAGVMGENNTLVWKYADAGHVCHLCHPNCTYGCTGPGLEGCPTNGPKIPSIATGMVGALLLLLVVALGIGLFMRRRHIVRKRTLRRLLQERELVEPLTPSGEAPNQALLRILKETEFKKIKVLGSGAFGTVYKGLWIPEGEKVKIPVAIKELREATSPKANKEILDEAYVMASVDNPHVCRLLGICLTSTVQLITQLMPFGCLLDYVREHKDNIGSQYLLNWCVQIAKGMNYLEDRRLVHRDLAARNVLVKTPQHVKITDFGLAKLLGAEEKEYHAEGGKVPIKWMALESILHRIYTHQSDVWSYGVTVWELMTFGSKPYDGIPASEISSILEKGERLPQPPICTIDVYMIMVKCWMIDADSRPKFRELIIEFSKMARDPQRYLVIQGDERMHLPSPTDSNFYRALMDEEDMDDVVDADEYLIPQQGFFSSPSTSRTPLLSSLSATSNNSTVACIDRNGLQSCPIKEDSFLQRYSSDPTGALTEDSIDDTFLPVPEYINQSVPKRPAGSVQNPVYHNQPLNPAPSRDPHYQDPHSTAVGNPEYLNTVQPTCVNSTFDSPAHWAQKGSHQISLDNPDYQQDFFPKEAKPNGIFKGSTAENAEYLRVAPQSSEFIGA

[18] = Ratio of drug level in tumor to plasma in SCID mouse; type: ADME; settings: tumor and plasma
[19] = Inhibition of FLT3 ITD mutant at 0.1 uM
[20] = molecular target: Fibroblast growth factor receptor 4 (Homo sapiens) (UniProt P22455); assay: Inhibition of FGFR4 at 1 uM
[21] = test system: Epidermal growth factor receptor (Homo sapiens), P00533 [L858R]; assay: Inhibition of EGFR L858R mutant at 1 uM; type: protein assay
K562 = assay: Induction apoptosis in ALK-negative human K562 cells assessed as activation of caspase 3/7 by fluorometric assay; type: functional, cell-based
[22] = molecular target: Leukocyte tyrosine kinase receptor (Homo sapiens) (UniProt P29376); assay: Inhibition of LTK at 0.1 uM
SUP-M2 [23] = assay: Antitumor activity against ALK-positive human SUP-M2 cells xenografted in SCID mouse assessed as complete tumor regression at 55 mg/kg, po bid after 12 days; type: functional, organism-based; design: dose 55 mg/kg
[24] = molecular target: Serine/threonine-protein kinase 32B (Homo sapiens) (UniProt Q9NY57); assay: Inhibition of YANK2 at 0.1 uM
Serine/threonine-protein kinase 32B (Homo sapiens), sequence (Q9NY57 whole entry): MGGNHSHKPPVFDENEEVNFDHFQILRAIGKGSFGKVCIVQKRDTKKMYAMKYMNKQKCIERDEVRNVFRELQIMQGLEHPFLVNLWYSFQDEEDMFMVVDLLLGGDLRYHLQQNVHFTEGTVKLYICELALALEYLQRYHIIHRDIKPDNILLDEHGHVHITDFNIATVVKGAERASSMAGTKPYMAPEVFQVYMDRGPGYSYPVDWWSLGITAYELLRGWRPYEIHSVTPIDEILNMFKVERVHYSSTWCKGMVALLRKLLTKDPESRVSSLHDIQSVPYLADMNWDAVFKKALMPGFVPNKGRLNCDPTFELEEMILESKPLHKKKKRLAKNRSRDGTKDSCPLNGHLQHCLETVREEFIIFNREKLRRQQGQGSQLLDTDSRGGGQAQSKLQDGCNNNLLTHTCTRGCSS

[25] = molecular target: Serine/threonine-protein kinase PLK4 (Homo sapiens) (UniProt O00444); assay: Inhibition of PLK4 at 0.1 uM
SUP-M2 [26] = assay: Antitumor activity against ALK-positive human SUP-M2 cells xenografted in SCID mouse at 10 mg/kg, po bid after 12 days; type: functional, organism-based; design: dose 10 mg/kg
[27] = AUC in beagle dog at 1 mg/kg, iv; type: ADME, organism-based, Canis lupus familiaris; design: dose 1 mg/kg, route intravenous; settings: plasma
[28] = Drug uptake in tumor lysates in SCID mouse xenografted with ALK-positive human SUP-M2 cells at 30 mg/kg, po bid for 12 days; type: ADME, organism-based, Neoplasm; design: dose 30 mg/kg, route oral; settings: read-out: Drug uptake
[29] = test system: Receptor-type tyrosine-protein kinase FLT3 (Homo sapiens), P36888 [D835H]; assay: Inhibition of FLT3 D835H mutant at 1 uM
[30] = molecular target: Mitogen-activated protein kinase 8 (Homo sapiens) (UniProt P45983); assay: Inhibition of JNK1 at 1 uM
Mitogen-activated protein kinase 8 (Homo sapiens), sequence (P45983 whole entry): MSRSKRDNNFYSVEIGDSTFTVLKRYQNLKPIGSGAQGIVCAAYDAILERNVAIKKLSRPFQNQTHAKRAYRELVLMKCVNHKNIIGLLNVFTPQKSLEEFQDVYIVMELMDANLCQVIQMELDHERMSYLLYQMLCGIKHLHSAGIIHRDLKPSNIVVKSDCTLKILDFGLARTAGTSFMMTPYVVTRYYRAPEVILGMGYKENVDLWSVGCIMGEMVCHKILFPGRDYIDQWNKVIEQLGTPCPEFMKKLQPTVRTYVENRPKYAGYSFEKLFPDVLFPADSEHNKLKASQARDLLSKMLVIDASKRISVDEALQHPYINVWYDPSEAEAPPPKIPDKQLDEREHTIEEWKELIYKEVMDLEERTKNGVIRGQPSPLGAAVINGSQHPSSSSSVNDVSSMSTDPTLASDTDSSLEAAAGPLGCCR

[31] = Oral bioavailability in beagle dog at 10 mg/kg; type: ADME, organism-based, Canis lupus familiaris; settings: in vivo
[32] = Plasma concentration in SCID mouse xenografted with ALK-positive human SUP-M2 cells at 10 mg/kg, po bid for 12 days; type: ADME, organism-based; design: dose 10 mg/kg, route oral
[33] = molecular target: Dual specificity mitogen-activated protein kinase kinase 4 (Homo sapiens) (UniProt P45985); assay: Inhibition of MEK4 at 0.1 uM
[34] = Half life in beagle dog at 10 mg/kg, po; type: ADME, organism-based, Canis lupus familiaris; design: dose 10 mg/kg, route oral; settings: in vivo
[35] = molecular target: Serine/threonine-protein kinase PAK 3 (Homo sapiens) (UniProt O75914); assay: Inhibition of PAK3 at 0.1 uM
[36] = AUC in Sprague-Dawley rat at 1 mg/kg, iv; type: ADME, organism-based; design: dose 1 mg/kg, route intravenous; settings: plasma
[37] = molecular target: T1, ALK tyrosine kinase receptor; assay: Inhibition of NPM-ALK autophosphorylation in human KARPAS299 cells in presence of mouse plasma; type: cell-based; settings: karpas-299
[38] = molecular target: Ribosomal protein S6 kinase alpha-1 (Homo sapiens) (UniProt Q15418); assay: Inhibition of RPS6KA1 at 0.1 uM
[39] = molecular target: Tyrosine-protein kinase Srms (Homo sapiens) (UniProt Q9H3Y6); assay: Inhibition of SRMS at 0.1 uM
[40] = molecular target: Epidermal growth factor receptor (Homo sapiens) (UniProt P00533); assay: Inhibition of EGFR at 1 uM
[41] = molecular target: Serine/threonine-protein kinase 3 (Homo sapiens) (UniProt Q13188); assay: Inhibition of MST2 at 1 uM
[42] = AUC in SCID mouse at 1 mg/kg, iv; type: ADME, organism-based; design: dose 1 mg/kg, route intravenous; settings: plasma
[43] = test system: Receptor-type tyrosine-protein kinase FLT3 (Homo sapiens), P36888 [D835Y]; assay: Inhibition of FLT3 D835Y mutant at 1 uM
[44] = molecular target: Protein-tyrosine kinase 2-beta (Homo sapiens) (UniProt Q14289); assay: Inhibition of PYK2 at 1 uM
[45] = molecular target: Mitogen-activated protein kinase kinase kinase 5 (Homo sapiens) (UniProt Q99683); assay: Inhibition of ASK1 at 1 uM
[46] = Half life in SCID mouse at 1 mg/kg, iv; type: ADME, organism-based; design: dose 1 mg/kg, route intravenous; settings: in vivo
[47] = molecular target: Serine/threonine-protein kinase 33 (Homo sapiens) (UniProt Q9BYT3); assay: Inhibition of STK33 at 1 uM
Serine/threonine-protein kinase 33 (Homo sapiens), sequence (Q9BYT3 whole entry, looked up): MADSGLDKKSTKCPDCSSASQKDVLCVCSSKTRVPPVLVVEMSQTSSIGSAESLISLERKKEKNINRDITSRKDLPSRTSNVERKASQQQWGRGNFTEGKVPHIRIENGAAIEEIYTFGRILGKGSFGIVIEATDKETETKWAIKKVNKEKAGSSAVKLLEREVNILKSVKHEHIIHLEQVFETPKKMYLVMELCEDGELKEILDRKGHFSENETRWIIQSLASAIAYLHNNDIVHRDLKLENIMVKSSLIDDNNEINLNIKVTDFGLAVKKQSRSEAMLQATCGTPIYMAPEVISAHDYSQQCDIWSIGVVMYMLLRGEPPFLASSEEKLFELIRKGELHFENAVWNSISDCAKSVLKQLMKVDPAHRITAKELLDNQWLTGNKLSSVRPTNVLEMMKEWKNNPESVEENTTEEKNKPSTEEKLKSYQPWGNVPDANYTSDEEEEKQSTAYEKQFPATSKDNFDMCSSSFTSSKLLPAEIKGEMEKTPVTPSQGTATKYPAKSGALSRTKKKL

[48] = Half life in Sprague-Dawley rat at 5 mg/kg, po; type: ADME, organism-based; design: dose 5 mg/kg, route oral; settings: in vivo
[49] = molecular target: Mitogen-activated protein kinase 8 (Homo sapiens) (UniProt P45983); assay: Inhibition of JNK1 at 0.1 uM
[50] = Tmax in beagle dog at 10 mg/kg, po; type: ADME, organism-based, Canis lupus familiaris; design: dose 10 mg/kg, route oral; settings: in vivo
[51] = Tmax in SCID mouse at 10 mg/kg, po; type: ADME, organism-based; design: dose 10 mg/kg, route oral; settings: in vivo
[52] = molecular target: NUAK family SNF1-like kinase 1 (Homo sapiens) (UniProt O60285); assay: Inhibition of ARK5 at 0.1 uM

inhibition [1]: 94%
inhibition [2]: < 50%
inhibition [4]: 91%
inhibition [5]: 99%
inhibition [6]: < 50%
inhibition [7]: 85%
inhibition [8]: 95%
inhibition [10]: 100%
inhibition [12]: 88%
IC50 [13]: 14 nM
inhibition [14]: < 50%
inhibition [15]: 90%
concentration at 288 h [16]: 1500 ng/mL
inhibition [17]: < 50%
Kp [18]: 1.3
inhibition [19]: < 50%
inhibition [20]: 98%
inhibition [21]: 92%
inhibition [22]: 96%
inhibition [24]: < 50%
inhibition [25]: 95%
AUC [27]: 773 ng·h/mL
concentration at 288 h [28]: 405 ng/g
inhibition [29]: 95%
inhibition [30]: 100%
bioavailability [31]: 31%
concentration at 288 h [32]: 337 ng/mL
inhibition [33]: < 50%
half-life [34]: 96 min
inhibition [35]: < 50%
AUC [36]: 1280 ng·h/mL
IC50 [37]: 225 nM
inhibition [38]: 68%
inhibition [39]: < 50%
inhibition [40]: 96%
inhibition [41]: 91%
AUC [42]: 446 ng·h/mL
inhibition [43]: 96%
inhibition [44]: 99%
inhibition [45]: 99%
half-life [46]: 18 min
inhibition [47]: 99%
half-life [48]: 132 min
inhibition [49]: 81%
Tmax [50]: 1.1 h
Tmax [51]: 15 min
inhibition [52]: < 50%
Compound: CCN1C(=O)CCCc2c1ccc(Nc1ncc(Cl)c(N[C@H]3[C@@H](C(N)=O)[C@@H]4C=C[C@H]3C4)n1)c2OC
Activity (Mus musculus [3]): Non-toxic
Activity (Mus musculus [9]): Non-toxic
Activity (Mus musculus [11]): Non-toxic
Activity (K562): inactive
Activity (SUP-M2 [23]): Active
Activity (SUP-M2 [26]): inactive
